Assay results published in PubChem BioAssay (NCI).
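These data come from cells grown in 96-well plates and exposed to compound for 48 hours at five concentrations. At the TGI there is no net growth.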

What was measured:
Assay in all cases: growth of human tumour cells (NCI), 48 h
[1] = system: OVCAR-4 ovarian
[2] = system: NCI-H522 lung
[3] = system: OVCAR-5 ovarian
[4] = system: SF-268 CNS
[5] = system: 786-0 renal
[6] = system: LOX IMVI melanoma
[7] = system: OVCAR-3 ovarian
[8] = system: MALME-3M melanoma
[9] = system: PC-3 prostate
[10] = system: UACC-257 melanoma
[11] = system: K-562 leukemia
[12] = system: SK-MEL-28 melanoma
[13] = system: UO-31 renal
[14] = system: HT29 colon
[15] = system: MDA-N
[16] = system: IGROV1 ovarian
[17] = system: RPMI-8226 leukemia
[18] = system: MDA-MB-231 breast
[19] = system: SW-620 colon
[20] = system: KM12 colon
[21] = system: SNB-19 CNS
[22] = system: SF-295 CNS
[23] = system: MDA-MB-435
[24] = system: U251 CNS
[25] = system: NCI-H23 lung
[26] = system: HCT-15 colon
[27] = system: SF-539 CNS
[28] = system: COLO 205 colon
[29] = system: M14 melanoma
[30] = system: NCI-H460 lung
[31] = system: SR leukemia
[32] = system: A549 NSCLC
[33] = system: HS 578T breast
[34] = system: TK-10 renal
[35] = system: EKVX NSCLC
[36] = system: HCT-116 colon
[37] = system: OVCAR-8 ovarian
[38] = system: DU-145 prostate
[39] = system: UACC-62 melanoma
[40] = system: HL-60(TB) leukemia
[41] = system: CAKI-1 renal
[42] = system: SN12C renal
[43] = system: T-47D breast
[44] = system: SNB-75 CNS
[45] = system: MCF7 breast
[46] = system: SK-OV-3 ovarian
[47] = system: RXF 393 renal
[48] = system: SK-MEL-2 melanoma
[49] = system: SK-MEL-5 melanoma
[50] = system: CCRF-CEM leukemia
[51] = system: NCI-H226 lung
[52] = system: HOP-92 NSCLC
[53] = system: NCI/ADR-RES ovarian
[54] = system: HCC-2998 colon
[55] = system: HOP-62 NSCLC
[56] = system: MOLT-4 leukemia
[57] = system: ACHN renal
[58] = system: A498 renal

Measured: TGI

Cc1cc(=O)oc2c(CNC(C)C(=O)O)c(O)ccc12 (configuration not stated)
not listed: [58]
> 100 µM: all other assays above

CSC(=NC1CC(n2cc(C)c(=O)[nH]c2=O)OC1CO)NC#N (configuration not stated)
not listed: [17] | [31] | [33]
> 100 µM: all other assays above
